Measurements reported in patent US7704978B2, “Methods for treating neuropsychiatric disorders” (The General Hospital Corporation, priority 1998, dated 2010).
Marks after values point to notes of the source that are not given here.

Assays:
Schizophrenia Patients [1] = assay: Double-blind, placebo-controlled 6-week treatment of schizophrenia patients: clinical symptoms and cognition (SANS, PANSS, CGI, Wisconsin Card Sort Test); type: in vivo, human; conditions: for cognition, PANSS-cognitive subscale and Wisconsin Card Sort Test: 6 weeks of treatment; for WCST (Wisconsin Card Sort Test), change: initiation versus end of the 6-week study; for WCST (Wisconsin Card Sort Test), change / Cognitive symptoms (PANSS-cognitive subscale), change / Positive Symptoms (PANSS-positive subscale), change / reduction of the negative symptoms (on the SANS scale) / reduction of the positive symptoms (on the PANSS-positive subscale) / CGI, score after treatment: D-serine 30, D-alanine 60-100, N-methylglycine 30 mg/kg/day; for Negative Symptoms (SANS), change / Cognitive symptoms (PANSS-cognitive subscale), change / Positive Symptoms (PANSS-positive subscale), change / reduction of the negative symptoms (on the SANS scale) / reduction of the positive symptoms (on the PANSS-positive subscale): once a day by mouth for 6 weeks; for Negative Symptoms (SANS), change: D-serine 30 mg/kg/day, D-alanine 60-100 mg/kg/day, N-methylglycine 30 mg/kg/day, added to stable antipsychotic; for CGI, score after treatment: value after the arrow: after 6 weeks, once a day by mouth; for CGI, baseline score: value before the arrow: baseline of the treatment group
Text: (§1) This study employed 37 patients who were diagnosed as having schizophrenia. All patients fulfilled the DSM-IV diagnosis of schizophrenia (APA, 1994, Diagnostic and Statistical Manual of Mental Disorders, Fourth Edition, Washington, D.C.). All of the patients also fulfilled the criteria of primary deficit syndrome, with a SANS score of more than 40 (Kirkpatrick et al., 1989, Psychiatry Research 30:119-123; Andreasen, 1983, Scales for the Assessment of Negative Symptoms (SANS), Iowa City, Iowa). All of the patients were poorly responsive to treatment by other antipsychotic drugs, and had been kept on a stable dose of an antipsychotic drug for at least 3 months prior to enrollment in this study.
(§2) Several scales were used to assess the severity of the disorder in each patient. At the beginning of the study (i.e., the baseline), the PANSS, SANS, and […] were used. Each scale also was completed at the end of each 2-week period throughout the study. These assessments were performed by a psychiatrist who was blind to the treatment assignment. The Wisconsin Card Sort Test was used to provide a cognitive rating of the patients; in general, schizophrenic patients perform poorly on this test. The Wisconsin Card Sort Test was administered only at the initiation of the study and at the end of the 6-week study. To measure side effects, the Simpson-Angus Scale was used to measure extrapyramidal symptoms (EPS; Simpson et al., 1970, Acta Psychiatrica Scandinavia Suppl. 212:11-19). The Abnormal Involuntary Movement Scale (AIMS) was used to measure dyskinesia (Simpson et al., 1970, Acta Psychiatrica Scandinavia Suppl. 212:11-19). The Barnes Scale was used to measure akathesia (Barnes, 1989, Brit. J. Psychiatry 154:672-676). The side effects of D-serine, D-alanine, and N-methylglycine treatments were assessed biweekly according to the UKU side effects rating scale (Scandinavian Society of Psychopharmacology Committee of Clinical Investigation: The UKU side effect rating scale: scale for the registration of unwanted effects of psychotropics. Acta. Psychiatr. Scand. 1987; Suppl. 334:81-94).
(§3) Using double-blind conditions, the patients were randomly assigned to receive placebo (fruit juice), D-serine (30 mg/kg/day), D-alanine (60-100 mg/kg/day), or N-methylglycine (30 mg/kg/day) once a day by mouth for a period of 6 weeks. As indicated by the results shown in Table 1, treatment with D-serine, D-alanine, or N-methylglycine improved the schizophrenic symptoms and cognitive deficit of the patients. […] These reductions in the negative and positive symptoms represented clinically significant improvement.

Schizophrenia Patients [2] = conditions: human, in vivo; for AIMS (dyskinesia), score after treatment / Barnes Scale (akathesia), score after treatment / EPS (Simpson-Angus Scale), score after treatment: 6 weeks
Text: as §1, §2, §3

Structure (SMILES) | cognition, PANSS-cognitive subscale and Wisconsin Card Sort Test (Schizophrenia Patients [1]) | WCST (Wisconsin Card Sort Test), change (Schizophrenia Patients [1]) | Negative Symptoms (SANS), change (Schizophrenia Patients [1]) | Cognitive symptoms (PANSS-cognitive subscale), change (Schizophrenia Patients [1]) | Positive Symptoms (PANSS-positive subscale), change (Schizophrenia Patients [1]) | reduction of the negative symptoms (on the SANS scale) (Schizophrenia Patients [1]) | reduction of the positive symptoms (on the PANSS-positive subscale) (Schizophrenia Patients [1]) | CGI, score after treatment (Schizophrenia Patients [1]) | CGI, baseline score (Schizophrenia Patients [1]) | AIMS (dyskinesia), baseline score (Schizophrenia Patients [2]) | Barnes Scale (akathesia), baseline score (Schizophrenia Patients [2]) | EPS (Simpson-Angus Scale), baseline score (Schizophrenia Patients [2]) | side effects, UKU scale (Schizophrenia Patients [2]) | significant side effects after treatment of schizophrenia patients (Schizophrenia Patients [2]) | tardive dyskinesia, extrapyramidal and akathesia symptoms (Schizophrenia Patients [2]) | AIMS (dyskinesia), score after treatment (Schizophrenia Patients [2]) | Barnes Scale (akathesia), score after treatment (Schizophrenia Patients [2]) | EPS (Simpson-Angus Scale), score after treatment (Schizophrenia Patients [2])
C[C@@H](N)C(=O)O [D-alanine] | improved cognition | +0.5* category | −12%* | −11%* | −11%* | 11% | 12% | 2.8 | 3.9 | 0.5 | 0.4 | 3.1-->3.1 | no side effects were noted | no significant side effects were detected | no newly emergent tardive dyskinesia or worsening of extrapyramidal or akathesia symptoms | 0.1 | 0.6 | 3.1-->3.1
N[C@H](CO)C(=O)O [D-serine] | improved cognition | +0.9 category | −21%* | −12%* | −17%* | 21% | 17% | 2.6 | 4.8 | 0.3-->0.3 | 0.4 | 1.4 | no side effects were noted | no significant side effects were detected | no newly emergent tardive dyskinesia or worsening of extrapyramidal or akathesia symptoms | 0.3-->0.3 | 0.8 | 1.7
CNCC(=O)O [N-methylglycine] | improved cognition | +0.7* category | −20%* | −12%* | −15%* | 20% | 15% | 2.7 | 4.2 | 0.4 | 0.5 | 2.1-->2.1 | no side effects were noted | no significant side effects were detected | no newly emergent tardive dyskinesia or worsening of extrapyramidal or akathesia symptoms | 0.3 | 0.6 | 2.1-->2.1
